Tests used:
Format in all cases: biochemical
BMX/ETK = target: T1, BMX/ETK (Homo sapiens, UniProt P51813); assay: HotSpot kinase selectivity profiling, BMX/ETK
T1 construct: purchased Reaction Biology Corporation (contract assay)
T1 sequence (P51813 1-675): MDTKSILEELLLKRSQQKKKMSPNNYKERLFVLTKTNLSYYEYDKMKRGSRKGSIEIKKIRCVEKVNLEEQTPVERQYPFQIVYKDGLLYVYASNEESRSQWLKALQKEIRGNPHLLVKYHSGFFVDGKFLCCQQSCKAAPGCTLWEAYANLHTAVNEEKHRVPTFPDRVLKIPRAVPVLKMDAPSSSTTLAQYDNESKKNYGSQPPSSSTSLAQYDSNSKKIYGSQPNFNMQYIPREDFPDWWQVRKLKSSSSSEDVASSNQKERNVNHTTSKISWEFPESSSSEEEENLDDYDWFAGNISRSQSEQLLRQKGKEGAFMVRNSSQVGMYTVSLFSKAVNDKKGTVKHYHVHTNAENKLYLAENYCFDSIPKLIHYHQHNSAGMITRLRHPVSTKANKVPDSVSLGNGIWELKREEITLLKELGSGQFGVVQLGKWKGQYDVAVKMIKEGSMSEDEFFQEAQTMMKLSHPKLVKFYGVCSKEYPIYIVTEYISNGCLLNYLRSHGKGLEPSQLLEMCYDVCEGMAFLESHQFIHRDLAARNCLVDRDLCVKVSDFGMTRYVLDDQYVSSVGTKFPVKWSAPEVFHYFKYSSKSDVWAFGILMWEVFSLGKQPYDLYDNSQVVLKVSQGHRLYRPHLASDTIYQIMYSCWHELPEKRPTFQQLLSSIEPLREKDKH

JAK3 = target: T2, JAK3 (Homo sapiens, UniProt P52333); assay: HotSpot kinase selectivity profiling, JAK3
T2 construct: purchased Reaction Biology Corporation (contract assay)
T2 sequence (P52333 1-1124): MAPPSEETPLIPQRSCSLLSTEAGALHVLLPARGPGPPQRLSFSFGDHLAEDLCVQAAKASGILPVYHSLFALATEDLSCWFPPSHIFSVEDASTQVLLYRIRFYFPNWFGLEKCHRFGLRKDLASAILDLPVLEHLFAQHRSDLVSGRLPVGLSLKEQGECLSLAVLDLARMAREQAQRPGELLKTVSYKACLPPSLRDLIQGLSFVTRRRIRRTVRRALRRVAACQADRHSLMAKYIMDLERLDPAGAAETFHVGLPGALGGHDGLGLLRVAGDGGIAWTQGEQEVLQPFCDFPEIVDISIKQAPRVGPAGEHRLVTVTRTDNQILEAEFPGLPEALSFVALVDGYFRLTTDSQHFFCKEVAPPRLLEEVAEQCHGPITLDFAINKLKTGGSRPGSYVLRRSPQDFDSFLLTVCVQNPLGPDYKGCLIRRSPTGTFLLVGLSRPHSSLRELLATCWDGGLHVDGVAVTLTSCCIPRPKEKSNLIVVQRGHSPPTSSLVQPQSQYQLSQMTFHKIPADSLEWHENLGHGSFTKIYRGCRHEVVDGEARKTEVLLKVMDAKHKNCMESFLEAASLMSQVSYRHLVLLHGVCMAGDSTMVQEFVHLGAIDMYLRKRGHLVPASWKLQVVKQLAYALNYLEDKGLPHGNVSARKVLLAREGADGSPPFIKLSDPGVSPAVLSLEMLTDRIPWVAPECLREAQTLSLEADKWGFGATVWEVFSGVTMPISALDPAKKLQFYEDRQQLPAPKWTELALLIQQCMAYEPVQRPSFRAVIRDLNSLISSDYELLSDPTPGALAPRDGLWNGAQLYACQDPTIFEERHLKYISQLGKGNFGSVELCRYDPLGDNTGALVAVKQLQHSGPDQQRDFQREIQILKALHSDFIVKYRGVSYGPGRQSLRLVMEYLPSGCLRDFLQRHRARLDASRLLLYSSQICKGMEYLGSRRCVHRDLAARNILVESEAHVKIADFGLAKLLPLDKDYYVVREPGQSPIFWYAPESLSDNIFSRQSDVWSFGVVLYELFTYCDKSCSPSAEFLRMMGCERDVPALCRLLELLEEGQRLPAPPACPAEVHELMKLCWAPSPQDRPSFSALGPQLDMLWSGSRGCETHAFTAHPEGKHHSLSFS

ITK = target: T3, ITK (Homo sapiens, UniProt Q08881); assay: HotSpot kinase selectivity profiling, ITK
T3 construct: purchased Reaction Biology Corporation (contract assay)
T3 sequence (Q08881 1-620): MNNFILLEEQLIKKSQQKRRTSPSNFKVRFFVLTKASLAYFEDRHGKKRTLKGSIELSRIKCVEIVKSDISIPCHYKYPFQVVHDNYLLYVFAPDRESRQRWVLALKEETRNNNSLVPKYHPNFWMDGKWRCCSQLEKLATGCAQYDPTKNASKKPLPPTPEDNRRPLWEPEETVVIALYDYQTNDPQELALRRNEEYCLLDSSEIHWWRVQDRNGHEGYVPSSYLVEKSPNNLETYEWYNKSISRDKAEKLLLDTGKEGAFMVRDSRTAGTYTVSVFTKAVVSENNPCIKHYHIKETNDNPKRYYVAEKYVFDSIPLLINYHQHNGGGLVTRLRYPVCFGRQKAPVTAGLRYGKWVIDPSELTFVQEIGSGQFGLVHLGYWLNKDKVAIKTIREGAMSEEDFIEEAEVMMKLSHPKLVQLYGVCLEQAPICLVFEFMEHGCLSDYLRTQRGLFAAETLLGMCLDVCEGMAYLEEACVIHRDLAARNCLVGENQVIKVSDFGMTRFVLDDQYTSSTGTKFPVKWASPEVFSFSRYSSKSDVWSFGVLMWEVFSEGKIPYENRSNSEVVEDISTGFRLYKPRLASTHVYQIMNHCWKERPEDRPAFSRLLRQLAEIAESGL

ERBB2 = target: T4, ERBB2 (Homo sapiens, UniProt P04626); assay: HotSpot kinase selectivity profiling, ERBB2
T4 construct: purchased Reaction Biology Corporation (contract assay)

EGFRK = target: T5, EGFRK (Homo sapiens, UniProt P00533); assay: HotSpot kinase selectivity profiling, EGFRK
T5 construct: purchased Reaction Biology Corporation (contract assay)
T5 sequence (P00533 25-1210): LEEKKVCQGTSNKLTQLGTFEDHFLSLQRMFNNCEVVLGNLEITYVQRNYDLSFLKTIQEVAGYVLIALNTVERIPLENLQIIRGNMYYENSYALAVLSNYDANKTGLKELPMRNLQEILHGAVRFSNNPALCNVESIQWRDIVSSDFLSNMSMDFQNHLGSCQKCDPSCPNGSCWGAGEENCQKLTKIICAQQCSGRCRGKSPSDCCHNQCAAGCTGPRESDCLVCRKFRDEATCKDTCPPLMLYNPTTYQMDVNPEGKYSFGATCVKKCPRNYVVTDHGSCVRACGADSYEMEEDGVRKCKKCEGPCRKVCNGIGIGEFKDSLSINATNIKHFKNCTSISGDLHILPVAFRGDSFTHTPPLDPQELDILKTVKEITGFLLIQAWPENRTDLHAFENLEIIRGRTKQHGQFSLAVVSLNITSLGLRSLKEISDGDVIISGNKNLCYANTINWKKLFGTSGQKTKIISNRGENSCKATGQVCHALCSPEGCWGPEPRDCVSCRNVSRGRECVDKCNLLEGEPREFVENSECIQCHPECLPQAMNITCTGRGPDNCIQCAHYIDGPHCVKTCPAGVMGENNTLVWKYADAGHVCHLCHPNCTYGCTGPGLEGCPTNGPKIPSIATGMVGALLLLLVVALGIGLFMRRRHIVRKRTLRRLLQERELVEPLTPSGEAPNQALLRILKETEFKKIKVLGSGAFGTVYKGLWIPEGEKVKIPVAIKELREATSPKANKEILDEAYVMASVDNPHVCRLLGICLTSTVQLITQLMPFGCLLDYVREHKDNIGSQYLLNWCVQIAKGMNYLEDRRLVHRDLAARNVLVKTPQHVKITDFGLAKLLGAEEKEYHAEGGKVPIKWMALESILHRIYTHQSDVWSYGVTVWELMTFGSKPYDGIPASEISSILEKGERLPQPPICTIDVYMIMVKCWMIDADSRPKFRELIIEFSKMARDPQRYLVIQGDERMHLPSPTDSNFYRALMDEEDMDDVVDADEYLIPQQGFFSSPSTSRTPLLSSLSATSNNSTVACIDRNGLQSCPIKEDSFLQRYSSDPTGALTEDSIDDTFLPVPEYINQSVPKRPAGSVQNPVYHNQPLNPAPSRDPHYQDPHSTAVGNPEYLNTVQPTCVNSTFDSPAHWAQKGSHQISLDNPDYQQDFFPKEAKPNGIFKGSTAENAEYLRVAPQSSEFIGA

T4 sequence (P04626 23-1255): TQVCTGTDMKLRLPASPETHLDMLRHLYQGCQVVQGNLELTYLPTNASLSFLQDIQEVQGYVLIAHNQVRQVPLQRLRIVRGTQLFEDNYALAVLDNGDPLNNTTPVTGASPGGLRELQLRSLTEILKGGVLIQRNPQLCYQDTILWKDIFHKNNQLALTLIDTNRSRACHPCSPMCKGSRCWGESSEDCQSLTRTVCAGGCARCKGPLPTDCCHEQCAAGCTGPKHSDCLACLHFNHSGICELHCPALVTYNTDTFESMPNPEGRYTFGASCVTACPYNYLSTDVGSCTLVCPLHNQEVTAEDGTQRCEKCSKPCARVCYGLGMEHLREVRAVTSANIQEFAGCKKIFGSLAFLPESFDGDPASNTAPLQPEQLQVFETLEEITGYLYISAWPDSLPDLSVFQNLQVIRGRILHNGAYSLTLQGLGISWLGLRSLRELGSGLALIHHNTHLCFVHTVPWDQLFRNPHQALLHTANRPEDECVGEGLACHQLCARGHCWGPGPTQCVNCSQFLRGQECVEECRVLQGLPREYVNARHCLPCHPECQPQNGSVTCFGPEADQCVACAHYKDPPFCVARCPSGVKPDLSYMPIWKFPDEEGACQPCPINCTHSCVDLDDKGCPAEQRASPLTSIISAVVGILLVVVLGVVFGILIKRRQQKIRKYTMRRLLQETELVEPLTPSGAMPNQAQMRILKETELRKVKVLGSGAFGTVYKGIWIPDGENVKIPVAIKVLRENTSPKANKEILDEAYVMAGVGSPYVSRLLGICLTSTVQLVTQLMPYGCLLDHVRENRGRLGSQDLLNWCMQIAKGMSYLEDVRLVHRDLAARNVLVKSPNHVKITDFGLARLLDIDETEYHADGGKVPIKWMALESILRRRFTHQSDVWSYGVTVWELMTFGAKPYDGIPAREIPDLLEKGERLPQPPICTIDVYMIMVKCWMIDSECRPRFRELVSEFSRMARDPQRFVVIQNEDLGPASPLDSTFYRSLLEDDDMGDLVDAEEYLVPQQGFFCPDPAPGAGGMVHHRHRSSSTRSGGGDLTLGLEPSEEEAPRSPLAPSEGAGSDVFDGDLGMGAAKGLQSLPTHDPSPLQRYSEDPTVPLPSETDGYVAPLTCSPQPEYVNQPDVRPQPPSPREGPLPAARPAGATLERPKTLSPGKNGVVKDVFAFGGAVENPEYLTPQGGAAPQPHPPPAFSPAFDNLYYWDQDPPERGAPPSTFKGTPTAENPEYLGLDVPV

Work on C=CC(=O)Oc1ccccc1Oc1cnc(N)c(N2CCc3cc(OCc4ccccc4)ccc3C2)c1 [Compound 17d, Acrylic Acid 2-[6-Amino-5-(6-benzyloxy-3,4-dihydro-1H-isoquinolin-2-yl)pyridin-3-yloxy]phenyl Ester] yielded an inhibition at 20 µM (BMX/ETK) of 98.7 ± 0.6%, an inhibition at 20 µM (JAK3) of 64.8 ± 0.3% and an inhibition at 20 µM (ITK) of 75.1%. It also gave an inhibition at 20 µM (ERBB2) of 43.4 ± 1% and an inhibition at 20 µM (EGFRK) of 87 ± 0.3%.
With C=CC(=O)Oc1cccc(Oc2cnc(N)c(N3CCc4cc(OCc5ccccc5)ccc4C3)c2)c1 [Compound 18d, Acrylic Acid 3-[6-Amino-5-(6-benzyloxy-3,4-dihydro-1H-isoquinolin-2-yl)pyridin-3-yloxy]phenyl Ester] the inhibition at 20 µM (BMX/ETK) was 95.5 ± 0.1%, the inhibition at 20 µM (JAK3) was 46.2 ± 4.2% and the inhibition at 20 µM (ITK) was 52.8 ± 1.8%. The inhibition at 20 µM (ERBB2) was 82.3 ± 1.6% and the inhibition at 20 µM (EGFRK) was 60.5 ± 4.4%.
C=CC(=O)Oc1cccc(Oc2cnc(N)c(N3CCc4cc(OCc5ccc(OC)cc5)ccc4C3)c2)c1 [Compound 18g, Acrylic Acid 3-{6-Amino-5-[6-(4-methoxybenzyloxy)-3,4-dihydro-1H-isoquinolin-2-yl]pyridin-3-yloxy}phenyl Ester] showed an inhibition at 20 µM (BMX/ETK) of 96 ± 0.1%, an inhibition at 20 µM (JAK3) of 77.1 ± 3% and an inhibition at 20 µM (ITK) of 46 ± 2.3%. The inhibition at 20 µM (ERBB2) was 78.8 ± 0.7% and the inhibition at 20 µM (EGFRK) was 33.5 ± 0.5%.

From paper PMC7663149, “Discovery of 5-Phenoxy-2-aminopyridine Derivatives as Potent and Selective Irreversible Inhibitors of Bruton’s Tyrosine Kinase” (International Journal of Molecular Sciences, 2020)
